From a melting point compilation (Tetko et al.; mined from patent text by program, amines drawn as free bases though some values may be those of a salt) come the findings set out here.

In general, melting point refers to the temperature, or range, at which the solid turns liquid.

Molecules are shown by their SMILES.

Consider `CS(=O)(=O)c1cncc(-c2nc(=O)c3ccccc3s2)n1`, for which the melting point is 232 to 233 °C.

On to `N#Cc1ccc(CN2CC=C(/C=C/c3ccc(F)cc3)CC2)cc1`, for which the melting point lay in the range of 150 to 152 °C. `O=c1c(-c2ccc(O)cc2)coc2ncccc12`: the melting point was in the range of 262 to 264 °C. For the compound `COC(=O)Cc1ccc2c(=O)c3ccccc3ccc2c1`, the melting point lay in the range of 67 to 69 °C. `CCCCCCCCCCCCCCOc1ccc(N)cc1`: the melting point is 65 to 68 °C. The compound `CCOC(=O)c1ccc(CNC(=O)CCl)cc1O` returned a melting point of 120 to 121 °C. `COC(=O)C1=C(C)NC(C)=C(C(=O)OCC2CCCO2)C1c1cccc(O)c1` (stereo unspecified) registered a melting point of 170 to 172 °C. The result for `CC(=O)c1ccc2nccc(OS(=O)(=O)C(F)(F)F)c2c1` reads 94 °C; that for `COc1ccc(C(=O)NC(C)(C#N)c2ccccn2)cc1` (stereo unspecified), 173 °C; that for `Cc1cc(-c2cc(C(F)(F)F)n3nccc3n2)ccc1C(F)(F)F`, 87 °C.

For the compound `S=C1Nc2ccccc2CN(c2ccccc2)N1`, the melting point lay within 242 to 244 °C. The result for `O=c1cc(-c2ccc(OCc3ccccc3)c(OCc3ccccc3)c2)oc2cc(OCC3CO3)ccc12` (stereo unspecified) reads 168 to 170 °C; that for `O=C(O)c1cccc(-c2ccc3c(c2)N(Cc2ccc(Cl)c(Cl)c2)CC3)c1`, 167 to 168 °C. The compound `Cc1c(C=O)ncn1Cc1ccccc1` showed a melting point of 107 to 110 °C. As for `CCCSc1ncc(C(=O)N[C@@H](Cc2c[nH]cn2)C(=O)O)n1Cc1ccccc1Cl`, the figure is 130 to 132 °C; as for `CCOC(=O)c1c(O)n(CC)c2cc(-c3ccncc3)ccc2c1=O`, 153 to 157 °C.

Turning to `CN(O)C(=O)c1ccccc1Nc1c(Cl)cccc1Cl`, the melting point is 137 to 140 °C. In turn, `Cc1cc(Cn2nc(-c3ccccc3)oc2=O)cc(C)c1O` showed a melting point of 135 °C. As for `Cc1cc(F)c(-n2cnc3ccccc3c2=O)cc1SCC(F)(F)F`, the figure is 145 to 147 °C. The result for `CCCCCCCCCCCCCCCC(=O)OCc1ccco1` reads 31 to 33 °C.

`O=C(O)c1cc(F)ccc1Nc1ccnc2c(C(F)(F)F)cccc12`: the melting point was in the range of 262 to 268 °C. The result for `CCOC(=O)c1c[nH]c2cc(C)cc(O)c12` reads 152 to 154 °C.

As for `COc1ccccc1-c1cc(C2CCN(Cc3ccc(Cl)cc3)CC2)n[nH]1`, the melting point was 102 to 103 °C. The result for `CC1(C)Cc2nsc(=Nc3c(F)cc(Cl)c4nc(Cl)sc34)n2C1` reads 134 to 136 °C. In turn, `COC(=O)c1ccc2c(-c3ccccc3)cc(=O)oc2c1` showed a melting point of 133 to 135 °C. As for `O=Cc1cn(Cc2ccc3cc(OCc4ccccc4)ccc3c2)cc1-c1ccccc1`, the melting point lay within 140 to 141 °C. The result for `O=C(Cc1ccc(Cl)cc1)Nc1cccc(-n2nc(C(F)(F)F)cc2C(F)(F)F)c1` reads 209 to 211 °C; that for `CCOc1cc(C=CC(C)=O)ccc1O`, 98 to 100 °C; that for `O=Cc1cnc(-c2ccccc2Cl)s1`, 95 to 97 °C. Consider `Cc1ccc2nc3n(c(=O)c2c1)-c1ccc(F)cc1C3=O`, for which the melting point was in the range of 300 to 301 °C. The compound `CCCCCN1N=C(c2ccc(OCC)c(OCC)c2)[C@@H]2CCCC[C@@H]2C1=O` (relative stereo) gave a melting point of 98 to 99 °C. The result for `CSc1ccc(N2CC=C(c3cccc(C)c3)CC2)nn1` reads 130 °C; that for `Oc1ccc(-c2cc3cc(O)cc(-c4nnco4)c3o2)cc1`, 260 to 266 °C; that for `CC(C)(C)OC(=O)c1ncn2c1[C@@H]1CCN1C(=O)c1c(Cl)cccc1-2`, 235 to 236 °C.

`CC(C)[C@H](NC(=O)OC(C)(C)C)C(=O)NC1CCC(Nc2cccc3c2C(=O)c2ccccc2C3=O)CC1` (stereo partly specified) yielded a melting point of 179 °C. As for `CCOC(=O)C=Cc1nc(-c2ccc(=O)n(C(C)C)n2)c(-c2ccccc2)nc1N`, the figure is 233 to 236 °C.
